This is an account of results in US10696674B2, “Spirolactams as inhibitors of ROCK” (BRISTOL-MYERS SQUIBB COMPANY, priority 2016, dated 2020).

pIC50: −log10 of the molar value.

The first experiment relates to ROCK.
Assay: not given
Particulars: rats, balloon injury model; cited from earlier work.
Turning to `C[C@@H](N)[C@H]1CC[C@H](C(=O)Nc2ccncc2)CC1` [Example Y-27632, Y-27632], the neointimal formation entry was “inhibited neointimal formation”.

For another experiment, the system named is ROCK.
Assay: not given
The following applies: rat, in vivo; cited from earlier work.
With `C[C@@H](N)[C@H]1CC[C@H](C(=O)Nc2ccncc2)CC1` [Example Y-27632, Y-27632], the “ventricular hypertrophy, fibrosis and function” value is “improve ventricular hypertrophy, fibrosis and function”.

For the next experiment, the target named is ROCK2 (Homo sapiens, UniProt O75116). As to the kind of experiment: ROCK2 assay (Caliper LABCHIP peptide phosphorylation). Format: biochemical. The following applies: 5 μM ATP, 1.5 μM peptide substrate. How it is done: The effectiveness of compounds of the present invention as ROCK inhibitors can be determined in a 30 μL assay containing 20 mM HEPES, pH 7.5, 20 mM MgCl2, 0.015% Brij-35, 4 mM DTT, 5 μM ATP and 1.5 μM peptide substrate (FITC-AHA-AKRRRLSSLRA-OH) (SEQ ID NO.1). Compounds were dissolved in DMSO so that the final concentration of DMSO was <2%, and the reaction was initiated with Rho kinase variants. After incubation, the reaction was terminated by the addition of EDTA and the phosphorylated and non-phosphorylated peptides separated using a LABCHIP® 3000 Reader (Caliper Life Sciences). […] Compounds were tested in dose-response format, and the inhibition of kinase activity was calculated at each concentration of compound. The inhibition data were fit using a curve-fitting program to determine the IC50; i.e., the concentration of compound required to inhibit 50% of kinase activity.
Sequence of ROCK2 (O75116 whole entry, species assumed): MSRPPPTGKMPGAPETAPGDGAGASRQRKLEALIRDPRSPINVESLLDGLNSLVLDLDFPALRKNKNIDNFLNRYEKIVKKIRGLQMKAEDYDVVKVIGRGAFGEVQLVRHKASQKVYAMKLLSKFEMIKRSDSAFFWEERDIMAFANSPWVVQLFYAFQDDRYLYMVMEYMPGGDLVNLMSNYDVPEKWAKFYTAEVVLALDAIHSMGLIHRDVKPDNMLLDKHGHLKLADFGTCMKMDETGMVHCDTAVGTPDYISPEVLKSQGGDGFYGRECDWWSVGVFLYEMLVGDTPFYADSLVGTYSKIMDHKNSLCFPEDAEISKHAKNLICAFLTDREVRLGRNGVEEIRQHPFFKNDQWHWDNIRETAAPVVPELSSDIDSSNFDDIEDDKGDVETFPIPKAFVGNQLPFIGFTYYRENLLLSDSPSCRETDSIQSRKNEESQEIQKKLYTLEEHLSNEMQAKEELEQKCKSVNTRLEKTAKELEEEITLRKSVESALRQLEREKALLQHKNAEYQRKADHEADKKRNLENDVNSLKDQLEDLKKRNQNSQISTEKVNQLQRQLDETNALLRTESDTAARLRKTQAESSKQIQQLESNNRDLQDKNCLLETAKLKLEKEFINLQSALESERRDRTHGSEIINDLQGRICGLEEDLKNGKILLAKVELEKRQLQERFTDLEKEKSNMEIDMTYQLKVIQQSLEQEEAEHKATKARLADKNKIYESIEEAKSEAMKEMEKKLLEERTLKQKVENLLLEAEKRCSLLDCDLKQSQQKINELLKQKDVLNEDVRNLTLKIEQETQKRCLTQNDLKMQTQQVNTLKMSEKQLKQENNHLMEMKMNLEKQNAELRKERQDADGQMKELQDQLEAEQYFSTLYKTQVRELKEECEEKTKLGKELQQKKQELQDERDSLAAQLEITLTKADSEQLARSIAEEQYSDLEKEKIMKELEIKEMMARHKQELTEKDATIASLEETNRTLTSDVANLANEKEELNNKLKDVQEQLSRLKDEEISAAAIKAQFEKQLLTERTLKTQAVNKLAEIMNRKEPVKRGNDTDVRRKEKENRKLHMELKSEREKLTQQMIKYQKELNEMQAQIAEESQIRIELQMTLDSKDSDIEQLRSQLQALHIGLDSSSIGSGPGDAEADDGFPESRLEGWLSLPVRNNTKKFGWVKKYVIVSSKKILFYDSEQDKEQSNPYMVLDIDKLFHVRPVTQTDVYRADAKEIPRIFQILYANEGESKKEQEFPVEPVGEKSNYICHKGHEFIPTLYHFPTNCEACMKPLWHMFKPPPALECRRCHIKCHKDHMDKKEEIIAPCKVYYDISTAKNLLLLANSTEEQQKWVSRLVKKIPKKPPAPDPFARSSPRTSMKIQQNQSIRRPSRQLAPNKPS
Representative Examples were tested in the ROCK2 assay described above and found having ROCK2 inhibitory activity. The ranges of the ROCK2 IC50 values are as follows: ROCK2 IC50: ++++ (<3 nM) +++ (3-30 nM) ++ (30-300 nM) + (300-2000 nM)
`COc1ccc2c(c1)CC1(CCN(c3ccc(-c4cn[nH]c4)cc3)C1=O)O2` (stereo not shown) [Example 24, 1′-(4-(1H-Pyrazol-4-yl)phenyl)-5-methoxy-3H-spiro[benzofuran-2,3′-pyrrolidin]-2′-one] gave a pIC50 of over 8.52.
Compound `O=C1N(c2ccc(-c3cn[nH]c3)cc2)CCC12Cc1ccc(O)cc1N2` (stereo not shown) [Example 37] had a negative-log IC50 (pIC50) of over 8.52.
Still for that read-out and setting: with `O=C1N(c2ccc(-c3cn[nH]c3)cc2)CC(CO)C12Cc1ccccc1N2` (stereo not shown) [Example 52, 1′-(4-(1H-pyrazol-4-yl)phenyl)-4′-(hydroxymethyl)spiro[indoline-2,3′-pyrrolidin]-2′-one] the figure was over 8.52; with `O=C1N(c2ccc(-c3cn[nH]c3)cc2)CCC12Cc1ccccc1CN2` (stereo not shown) [Example 48, 1′-(4-(1H-pyrazol-4-yl)phenyl)-1,4-dihydro-2H-spiro[isoquinoline-3,3′-pyrrolidin]-2′-one], 6.52 to 7.52; with `COc1cc(N2CCC3(Cc4ccccc4N3)C2=O)ccc1-c1cn[nH]c1` (racemic) [Example 32, 1′-(3-methoxy-4-(1H-pyrazol-4-yl)phenyl)spiro[indoline-2,3′-pyrrolidin]-2′-one], over 8.52.
On the same count and under the same terms, with `COc1cc(N2CCC3(Cc4ccccc4N3)C2=O)ccc1-c1cn[nH]c1` (single isomer, unassigned) [Example 34, 1′-(3-methoxy-4-(1H-pyrazol-4-yl)phenyl)spiro[indoline-2,3′-pyrrolidin]-2′-one] the figure was over 8.52.
The same measure, in the same setting: the value for `O=C1N(c2cnc(-c3cn[nH]c3)cn2)CCC12Cc1ccccc1N2` (stereo not shown) [Example 44, 1′-(5-(1H-Pyrazol-4-yl)pyrazin-2-yl)spiro[indoline-2,3′-pyrrolidin]-2′-one] was 7.52 to 8.52; that for `O=C1N(c2ccc(-c3cn[nH]c3)cc2)CCC12Cc1ccccc1O2` (single isomer, unassigned) [Example 31, 1′-(4-(1H-Pyrazol-4-yl)phenyl)-3H-spiro[benzofuran-2,3′-pyrrolidin]-2′-one] was over 8.52.
Consider `O=C1N(c2ccc(-c3ccnc4[nH]ccc34)cc2)CCC12Cc1ccccc1CN2` (stereo not shown) [Example 49, 1′-(4-(1H-pyrrolo[2,3-b]pyridin-4-yl)phenyl)-1,4-dihydro-2H-spiro[isoquinoline-3,3′-pyrrolidin]-2′-one], for which the negative logarithm of the IC50 (pIC50) was 7.52 to 8.52.
The same measure, in the same setting: the value for `O=C1N(c2ccc(-c3cn[nH]c3)cc2)CCC12Cc1ccc(OCC3CC3)cc1N2` (single isomer, unassigned) [Example 42, 1′-(4-(1H-Pyrazol-4-yl)phenyl)-6-(cyclopropylmethoxy)spiro[indoline-2,3′-pyrrolidin]-2′-one] was over 8.52; that for `COc1ccc2c(c1)CC1(CCN(c3ccc(-c4cn[nH]c4)cc3)C1=O)C2` (single isomer, unassigned) [Example 22, 1′-(4-(1H-Pyrazol-4-yl)phenyl)-5-methoxy-1,3-dihydrospiro[indene-2,3′-pyrrolidin]-2′-one] was over 8.52; that for `COc1cc(N2CCC3(Cc4ccccc4C3)C2=O)ccc1-c1cn[nH]c1` [Example 35, 1′-(3-Methoxy-4-(1H-pyrazol-4-yl)phenyl)-1,3-dihydrospiro[indene-2,3′-pyrrolidin]-2′-one] was 7.52 to 8.52.
Still for that read-out and setting: with `COc1nc(N2CCC3(Cc4ccccc4C3)C2=O)ccc1-c1cn[nH]c1` [Example 23, 1′-(6-Methoxy-5-(1H-pyrazol-4-yl)pyridin-2-yl)-1,3-dihydrospiro[indene-2,3′-pyrrolidin]-2′-one] the figure was over 8.52; with `O=C1N(c2ccc(-c3cn[nH]c3)cc2)CCC12Cc1cc(F)ccc1N2` (single isomer, unassigned) [Example 9, 1′-(4-(1H-Pyrazol-4-yl)phenyl)-5-fluorospiro[indoline-2,3′-pyrrolidin]-2′-one], 6.52 to 7.52; with `COc1nc(N2CCC3(Cc4ccc(F)cc4C3)C2=O)ccc1-c1cn[nH]c1` (single isomer, unassigned) [Example 18, 5-Fluoro-1′-(6-methoxy-5-(1H-pyrazol-4-yl)pyridin-2-yl)-1,3-dihydrospiro[indene-2,3′-pyrrolidin]-2′-one], 7.52 to 8.52.
On the same count and under the same terms, with `COc1ccc2c(c1)CC1(CCN(c3ccc(-c4cn[nH]c4)cc3)C1=O)N2` (stereo not shown) [Example 12, 1′-(4-(1H-Pyrazol-4-yl)phenyl)-5-methoxyspiro[indoline-2,3′-pyrrolidin]-2′-one] the figure was 6.52 to 7.52; with `O=C1N(c2ccc(-c3cn[nH]c3)cc2)CCC12Cc1ccccc1O2` (racemic) [Example 29, 1′-(4-(1H-Pyrazol-4-yl)phenyl)-3H-spiro[benzofuran-2,3′-pyrrolidin]-2′-one], over 8.52.
As for `COc1cc(F)c2c(c1)NC1(CCN(c3ccc(-c4cn[nH]c4)cc3)C1=O)C2` (racemic) [Example 38, 1′-(4-(1H-Pyrazol-4-yl)phenyl)-4-fluoro-6-methoxyspiro[indoline-2,3′-pyrrolidin]-2′-one], the pIC50 was over 8.52.
On the same count and under the same terms, the value for `COc1ccc2c(c1)CC1(CCN(c3ccc(-c4cn[nH]c4)cc3)C1=O)O2` (single isomer, unassigned) [Example 26, 1′-(4-(1H-Pyrazol-4-yl)phenyl)-5-methoxy-3H-spiro[benzofuran-2,3′-pyrrolidin]-2′-one] was over 8.52; that for `O=C1N(c2ccc(-c3cn[nH]c3)cc2)CCC12Cc1ccc(F)cc1C2` (single isomer, unassigned) [Example 15, 1′-(4-(1H-Pyrazol-4-yl)phenyl)-5-fluoro-1,3-dihydrospiro[indene-2,3′-pyrrolidin]-2′-one] was 7.52 to 8.52; that for `COc1ccc2c(c1)NC1(CCN(c3ccc(-c4cn[nH]c4)cc3)C1=O)C2` (single isomer, unassigned) [Example 6, 1′-(4-(1H-Pyrazol-4-yl)phenyl)-6-methoxyspiro[indoline-2,3′-pyrrolidin]-2′-one] was 7.52 to 8.52.
On to `O=C1N(c2ccc(-c3cn[nH]c3)cc2)CC(CO)C12CCc1ccccc1N2` (stereo not shown) [Example 56, 1-(4-(1H-pyrazol-4-yl)phenyl)-4-(hydroxymethyl)-3′,4′-dihydro-1′H-spiro[pyrrolidine-3,2′-quinolin]-2-one], for which the pIC50 was over 8.52.
Compound `COc1cc(N2CCC3(Cc4ccccc4N3)C2=O)ccc1-c1cn[nH]c1` (single isomer, unassigned) [Example 33, 1′-(3-Methoxy-4-(1H-pyrazol-4-yl)phenyl)spiro[indoline-2,3′-pyrrolidin]-2′-one] showed a pIC50 of 6.52 to 7.52.
Still for that read-out and setting: with `O=C1N(c2ccc(-c3cn[nH]c3)cc2)CCC12Cc1ccccc1N2` (single isomer, unassigned) [Example 3, 1′-(4-(1H-Pyrazol-4-yl)phenyl)spiro[indoline-2,3′-pyrrolidin]-2′-one] the figure was 6.52 to 7.52; with `NCC1CN(c2ccc(-c3cn[nH]c3)cc2)C(=O)C12Cc1ccccc1N2` (stereo not shown) [Example 53, 1′-(4-(1H-pyrazol-4-yl)phenyl)-4′-(aminomethyl)spiro[indoline-2,3′-pyrrolidin]-2′-one], over 8.52.
Still for that read-out and setting: the value for `COc1ccc2c(c1)NC1(CCN(c3ccc(-c4cn[nH]c4)cc3)C1=O)C2` (stereo not shown) [Example 4, 1′-(4-(1H-Pyrazol-4-yl)phenyl)-6-methoxyspiro[indoline-2,3′-pyrrolidin]-2′-one] was over 8.52; that for `CC1(C)c2ccccc2NC12CCN(c1ccc(-c3cn[nH]c3)cc1)C2=O` (stereo not shown) [Example 51, 1′-(4-(1H-pyrazol-4-yl)phenyl)-3,3-dimethylspiro[indoline-2,3′-pyrrolidin]-2′-one] was over 8.52.

The next experiment concerns ROCK.
Assay: not given
The following applies: long term treatment; cited from earlier work.
For the compound `O=S(=O)(c1cccc2cnccc12)N1CCCNCC1` [fasudil], the coronary constrictive remodeling entry was “promote a regression of coronary constrictive remodeling” and the coronary stenosis result is on record as “progressively reduce coronary stenosis”.

Another experiment concerns ROCK.
Assay: not given
Particulars: rat, in vivo; cited from earlier work. This is another data set of the same source.
Consider `O=S(=O)(c1cccc2cnccc12)N1CCCNCC1` [fasudil], for which the “infarct size and neurologic deficit” value was “reduce both the infarct size and neurologic deficit”.

Another experiment has as its system ROCK.
Assay: not given
Particulars: control rats; cited from earlier work.
Take `C[C@@H](N)[C@H]1CC[C@H](C(=O)Nc2ccncc2)CC1` [Example Y-27632, Y-27632]: the blood pressure entry is listed as “only a minor effect on blood pressure”.

Staying with this experiment, now noted: spontaneously hypertensive rat, renal hypertensive rat and deoxycortisone acetate salt hypertensive rat models; cited from earlier work.
For the compound `C[C@@H](N)[C@H]1CC[C@H](C(=O)Nc2ccncc2)CC1` [Example Y-27632, Y-27632], the blood pressure result is reported as “significantly decrease blood pressure”.
